{"source": "paper PMC11649397", "about": "“The study of halogen effect on the reactivity of the serine-targeting covalent warheads” (Frontiers in Chemistry, 2024)", "key": {"hCES1A [1]": {"target": "T1, hCES1A (Homo sapiens, UniProt P23141)", "T1 sequence (P23141 18-567)": "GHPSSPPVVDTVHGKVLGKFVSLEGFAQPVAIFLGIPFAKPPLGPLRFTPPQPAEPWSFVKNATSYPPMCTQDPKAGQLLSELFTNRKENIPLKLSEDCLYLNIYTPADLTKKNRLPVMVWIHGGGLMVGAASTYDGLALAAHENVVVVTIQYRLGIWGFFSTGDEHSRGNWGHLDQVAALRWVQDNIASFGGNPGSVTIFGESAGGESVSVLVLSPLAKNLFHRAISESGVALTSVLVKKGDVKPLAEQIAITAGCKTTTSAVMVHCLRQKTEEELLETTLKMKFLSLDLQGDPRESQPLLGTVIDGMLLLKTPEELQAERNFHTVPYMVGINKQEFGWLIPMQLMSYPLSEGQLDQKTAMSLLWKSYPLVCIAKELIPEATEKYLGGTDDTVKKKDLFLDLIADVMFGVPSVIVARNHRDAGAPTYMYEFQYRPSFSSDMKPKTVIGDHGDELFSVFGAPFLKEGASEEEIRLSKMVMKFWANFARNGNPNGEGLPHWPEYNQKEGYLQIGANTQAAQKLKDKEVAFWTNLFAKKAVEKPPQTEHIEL", "experiment": "Inhibition assay on hCES1A (bioluminogenic substrate NLMe)", "type": "biochemical", "conditions": "for selective inhibitory activity on hCES1A: 10 μM, selectivity screening; for anti-hCES1A effect in screening of the covalent fragment library: high-throughput screening, Figure 1; for IC50: mean ± SD, n = 3", "procedure": "In this study, a known bioluminogenic probe substrate NLMe was used for human carboxylesterase 1 (hCES1A) inhibition assays. ([Wang et al., 2020]). In brief, the incubation mixture (0.1 mL) consisted of 0.1 M buffer PBS (PH 6.5), hCES1A (0.1 μg/mL, final concentration) and each test compound. […] After 20 min incubation, equal volume of LDR was added to stop reaction. The luminescence signals were monitored in the microplate reader (SpectraMax iD3Molecular Devices, Austria). […]\nThe household library of covalent fragments including D and F was from Organic Chemistry […]\nFig. S1. Partial fragment molecules of a household library targeting to serine. […]\nInhibition assay on hCES1A\nIn this study, a known bioluminogenic probe substrate NLMe was used for human carboxylesterase 1 (hCES1A) inhibition assays. 2 In brief, the incubation mixture (0.1 mL) consisted of 0.1 M buffer PBS (PH 6.5), hCES1A (0.1 μg/mL, final concentration) and each test compound. […]\nAfter 20 min incubation, equal volume of LDR was added to stop reaction."}, "hCES1A [2]": {"target": "T1, hCES1A", "experiment": "Co-crystallography with hCES1A", "type": "binding", "conditions": "1:5 molar ratio", "procedure": "Purified hCES1A incubated with F-3 and F-4 at 1:5 M ratio for 1 h at 18°C. Crystallisation screening was performed using commercially available kit sets using sitting drop vapor diffusion at 16°C. Both diffraction-quality crystals were obtained from the condition containing 14.4% peg8000 (w/v), 0.1M MES 6.4, 0.3M CaAc and 20% glycerol. Crystals were flash cooled in liquid nitrogen after cryoprotection in 25% glycerin. Date was collected on 02U1 at Shanghai Synchrotron Radiation Facility (SSRF). Data images were processed using program HKL2000. ([Otwinowski and Minor, 1997]). Crystal structures were solved using molecular replacement with the Phenix software suite using unbound hces1a (Protein Data Bank [PDB] accession number 1MX1 as the search model. Structure refinement was performed using Phenix. ([Adams et al., 2010]). The program COOT was used for manual rebuilding. ([Emsley and Cowtan, 2004]). Molecular graphics images were generated using CCP4MG. ([McNicholas et al., 2011]). […]\nfluorogenic probe. 4 Briefly, the incubation mixtures (0.1 mL) contained Tris-HCl buffer, hPL solution (0.25 μg/mL, final concentration), porcine bile salt (0.1 mg/mL, final concentration) and each inhibitor (with different concentrations). […] The fluorescent signals of hydrolytic product were quantified by using the microplate reader (Spectra Max M4, Austria), with the wavelength of 600 nm and 660 nm for excitation and emission, respectively. […]\nOPTS, a known fluorogenic probe, was used as the substrate to assess the residual activities of Notum in the presence of each tested compound. […] After preincubated at 37 °C for 1 min, OPTS was added to initiate the hydrolytic reaction and the multi-mode microplate reader (SpectraMax iD3, Molecular Devices, Austria) was used to analyze the florescence signals of the […]\nThe F-3, F-4, F-10-bound peptides was analysed using the nanoLC-MS/MS system, respectively.6 The purified hCES1A (150 μg, final content) was co-incubated with the small molecule inhibitor F-3/ F-4/ F-10 (100 μM, final concentration) at 4 °C and 25 °C, respectively, for 4h. […]"}}, "note": "Values joined by “and” are separate entries in the source; they are usually repeats but may differ in a detail not shown here. Equal entries are not always repeated. “Also recorded” adds a separate entry of the source. Where two headings read alike, the source gives them in different places."}
{"smiles": "O=S(=O)(F)c1ccc(Br)cc1", "note": "[D, 4-bromobenzenesulfonyl fluoride]", "values": [{"measurement": "selective inhibitory activity on hCES1A", "setting": "hCES1A [1]", "result": "decent selective inhibitory activities"}, {"measurement": "difference between IC50 values of hCES1A and hCES2A", "setting": "hCES1A [1]; hCES1A vs hCES2A", "result": "no statistically significant difference"}, {"measurement": "anti-hCES1A effect in screening of the covalent fragment library", "setting": "hCES1A [1]", "result": "potent anti-hCES1A effects; also recorded: strong and selective inhibition against hCES1A"}]}
{"smiles": "O=C(c1ccccc1)C(F)(F)F", "note": "[F, 2,2,2-trifluoroacetophenone]", "values": [{"measurement": "selective inhibitory activity on hCES1A", "setting": "hCES1A [1]", "result": "decent selective inhibitory activities"}, {"measurement": "IC50", "setting": "hCES1A [1]; 3 min incubation, read-out: hCES1A IC50 3 min", "result": "0.0241 ± 0.001", "unit": "µM"}, {"measurement": "time-dependent inhibition against hCES1A", "setting": "hCES1A [1]; 3 min vs 33 min incubation", "result": "weak time-dependent inhibition"}, {"measurement": "IC50", "setting": "hCES1A [1]; 33 min incubation, read-out: hCES1A IC50 33 min", "result": "0.011 µM and 0.0111 µM"}, {"measurement": "anti-hCES1A effect in screening of the covalent fragment library", "setting": "hCES1A [1]", "result": "potent anti-hCES1A effects; also recorded: strong and selective inhibition against hCES1A"}, {"measurement": "hCES1A IC50 Fold Increase", "setting": "hCES1A [1]; ratio of IC50 at 3 min to IC50 at 33 min", "result": "2 and 2.2"}, {"measurement": "covalent binding mode at the catalytic triad (Ser221) in co-crystal", "setting": "hCES1A [2]", "result": "failed to result in similar covalent interactions"}]}
